Measurements as given in patent publication US6537267B1, “Method for chronic catheterization of the common bile duct of a laboratory rat” (priority 2001, dated 2003).

Experiment: Determination of maximal biliary ICG excretion rate
Type: in vivo, rat
Protocol: Bile was obtained through the bile catheter by inserting a 23-gauge infusion set needle (Abbott Laboratories) from which all but 0.5 in of tubing had been removed, and approximately 24 inches of saline-filled PE 60 tubing attached. A sterile 1.5 mL sampling tube was attached to the tubing end, and bile was withdrawn by suspending the sampling tube below the cage using negative pressure. Bile was collected into tared sampling tubes at 5 minute intervals during a 90 minute period during which ICG was infused into the IVC at 50 μg/minute. ICG, 1 mL/h was delivered by a Razel Scientific (Stamford, Conn.) infusion pump with a 3 mL Becton Dickinson (Franklin Lakes, N.J.) syringe.
Bile flow rate was calculated using the net sampling tube weight assuming a bile density of 1 g/mL. A total of 10 μL of bile from each sample tube was aliquoted to determine ICG concentration. The remainder of the bile was infused into the duodenal catheter to maintain enterohepatic circulation of bile acids. Biliary ICG concentrations were measured spectrophotometrically at wavelength 805 nm. Biliary ICG excretion was calculated for each 5 minute interval by multiplying the bile flow rate by the biliary ICG concentration.
To establish a sensitive and reliable measure of hepatic dysfunction, the maximal biliary ICG excretion rate under physiologic conditions was determined. This measure, which detected even minor changes in biliary ICG excretion, was critical to subsequent primary studies. The animals were anesthetized with ketamine (60 mg/kg) and xylazine (5 mg/kg) intramuscularly. […] The blood concentrations and biliary excretion rates of ICG was measured during a constant infusion of ICG at 10, 20, 50, 100, and 200 μg/minute for 90 minutes in 8 rats that served as their own controls for the different doses on separate days. […] Biliary ICG excretion was measured as described above. Aortic blood samples (0.25 mL) were collected every 10 minutes and analyzed for ICG concentration. Following each blood draw, the animals were transfused with an equal volume of blood obtained immediately prior to transfusion from other untreated chronically catheterized rats that were previously designated as donors. […] After an initial 30 minute equilibration period mean biliary ICG excretion remained at a steady state concentration between 30 and 90 minutes of ICG infusion. […] The bile flow rate was unaffected by any of the tested ICG concentrations.

[1] = ICG infusion 100 and 200 μg/minute

## CC1(C)C(/C=C/C=C/C=C/C=C2\N(CCCCS(=O)(=O)O)c3ccc4ccccc4c3C2(C)C)=[N+](CCCCS(=O)(=O)[O-])c2ccc3ccccc3c21 [ICG, Indocyanine green]
[1]
  biliary ICG excretion rate between 30 and 90 minutes vs 50 μg/minute: did not yield a greater biliary ICG excretion rate
  mean blood ICG concentrations between 30 and 90 minutes vs 50 μg/minute: significantly increase mean blood ICG concentrations
Any of the tested ICG concentrations (10-200 μg/minute)
  effect of ICG on bile flow rate: unaffected
Constant ICG infusion
  equilibration period before steady state biliary ICG excretion: 30 min
